Test results: ChEMBL document CHEMBL5226341, “Discovery of a Potent FLT3 Inhibitor (LT-850-166) with the Capacity of Overcoming a Variety of FLT3 Mutations” (J Med Chem, 2021)

What was measured:
MV4-11 = test: Antiproliferative activity against human MV4-11 cells assessed as inhibition of cell growth incubated for 72 hrs by CellTiterGlo luminescent assay; assay type: functional, cell-based; settings: MV4-11, 72 h
BaF3 [1] = test: Antiproliferative activity against mouse BaF3 cells harboring FLT3-ITD-F691L mutant assessed as reduction in cell viability incubated for 72 hrs by CellTiterGlo luminescent assay; assay type: functional, cell-based; settings: BaF3, 72 h
BaF3 [2] = test: Antiproliferative activity against mouse BaF3 cells harboring FLT3-ITD-F691L mutant assessed as residual cell viability at 0.1 uM incubated for 72 hrs by CellTiterGlo luminescent assay; assay type: functional
BaF3 [3] = test: Antiproliferative activity against mouse BaF3 cells harboring FLT3-ITD-F691L mutant assessed as residual cell viability at 10 nM incubated for 72 hrs by CellTiterGlo luminescent assay; assay type: functional
[4] = target: Receptor-type tyrosine-protein kinase FLT3 (Homo sapiens, UniProt P36888, ITD); test: Inhibition of human FLT3-ITD mutant preincubated with enzyme for 20 mins followed by [gamma-33P]ATP addition and measured after 120 mins by filter binding method
BaF3 [5] = test: Antiproliferative activity against mouse BaF3 cells harboring FLT3-ITD-F691L mutant assessed as residual cell viability at 50 nM incubated for 72 hrs by CellTiterGlo luminescent assay; assay type: functional

Chain of Receptor-type tyrosine-protein kinase FLT3 (P36888 whole entry, looked up, stated change not applied): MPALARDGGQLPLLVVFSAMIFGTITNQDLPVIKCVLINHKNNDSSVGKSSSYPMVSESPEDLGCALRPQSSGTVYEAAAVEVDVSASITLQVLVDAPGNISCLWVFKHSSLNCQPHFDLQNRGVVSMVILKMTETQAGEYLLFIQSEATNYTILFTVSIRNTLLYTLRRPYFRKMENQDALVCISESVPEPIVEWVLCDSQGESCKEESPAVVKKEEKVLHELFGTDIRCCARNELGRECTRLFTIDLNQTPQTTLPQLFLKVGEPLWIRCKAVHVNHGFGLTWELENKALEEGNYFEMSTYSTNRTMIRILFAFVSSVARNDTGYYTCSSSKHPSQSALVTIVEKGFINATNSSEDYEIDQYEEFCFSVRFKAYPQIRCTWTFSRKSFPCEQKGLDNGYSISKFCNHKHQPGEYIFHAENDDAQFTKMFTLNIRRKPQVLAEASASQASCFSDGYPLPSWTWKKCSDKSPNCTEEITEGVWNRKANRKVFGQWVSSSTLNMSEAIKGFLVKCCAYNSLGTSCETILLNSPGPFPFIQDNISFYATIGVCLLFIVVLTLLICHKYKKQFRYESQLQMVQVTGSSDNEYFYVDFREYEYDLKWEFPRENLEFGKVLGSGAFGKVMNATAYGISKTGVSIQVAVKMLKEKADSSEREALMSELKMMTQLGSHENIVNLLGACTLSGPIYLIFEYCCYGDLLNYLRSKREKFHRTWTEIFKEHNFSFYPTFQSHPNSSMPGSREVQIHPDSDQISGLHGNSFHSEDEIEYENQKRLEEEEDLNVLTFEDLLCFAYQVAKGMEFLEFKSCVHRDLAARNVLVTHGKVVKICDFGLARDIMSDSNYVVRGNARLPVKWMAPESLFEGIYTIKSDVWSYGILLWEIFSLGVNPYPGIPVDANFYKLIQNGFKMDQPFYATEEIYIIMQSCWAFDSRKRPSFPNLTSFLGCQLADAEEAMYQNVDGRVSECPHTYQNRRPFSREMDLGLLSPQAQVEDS

O=C(Nc1cc(-c2ccc3ncn(Cc4ccccc4Cl)c3c2)[nH]n1)c1ccc(N2CCOCC2)cc1
IC50 (MV4-11): 9.02 nM | IC50 (BaF3 [1]): 65.2 nM | Activity (BaF3 [2]): 16.59%

CC(=O)N1CCN(c2ccc(C(=O)Nc3cc(-c4ccc5ncn(Cc6c(Cl)cccc6Cl)c5c4)[nH]n3)cc2)CC1
IC50 (MV4-11): 1.1 nM | Activity (BaF3 [3]): 103.45%

CN1CCC(Nc2ccc(C(=O)Nc3cc(-c4ccc5ncccc5c4)[nH]n3)cc2)CC1
IC50 [4]: 10.3 nM

CN1CCC(Nc2ccc(C(=O)Nc3cc(-c4ccc5ncn(Cc6ccc(F)cc6)c5c4)[nH]n3)cc2)CC1
IC50 [4]: 4.58 nM | IC50 (MV4-11): 23.6 nM | Activity (BaF3 [2]): 100.93%

CN1CCC(Nc2ccc(C(=O)Nc3cc(-c4cccc5ncn(C)c45)[nH]n3)cc2)CC1
IC50 [4]: 213 nM

Cc1cc(C(=O)Nc2cc(-c3ccc4ncn(Cc5ccccc5)c4c3)[nH]n2)ccc1NC1CCN(C)CC1
IC50 [4]: 3.72 nM | IC50 (MV4-11): 48.2 nM | Activity (BaF3 [2]): 99.36%

CN1CCC(Nc2ccc(C(=O)Nc3cc(-c4ccc5ncn(Cc6ccccc6)c5c4)[nH]n3)cc2F)CC1
IC50 [4]: 3.77 nM | IC50 (MV4-11): 32.6 nM | Activity (BaF3 [2]): 100.57%

CN1CCC(Nc2ccc(C(=O)Nc3cc(-c4ccc5c(c4)ncn5Cc4ccccc4)[nH]n3)cc2)CC1
IC50 [4]: 4.96 nM | IC50 (MV4-11): 58.4 nM

CC(C)n1cnc2ccc(-c3cc(NC(=O)c4ccc(NC5CCN(C)CC5)cc4)n[nH]3)cc21
IC50 [4]: 7.65 nM

COc1ccccc1Cn1cnc2ccc(-c3cc(NC(=O)c4ccc(NC5CCN(C)CC5)cc4)n[nH]3)cc21
IC50 [4]: 0.7 nM | IC50 (MV4-11): 33.6 nM | Activity (BaF3 [2]): 85.88%

COCCNc1ccc(C(=O)Nc2cc(-c3ccc4ncn(Cc5c(Cl)cccc5Cl)c4c3)[nH]n2)cc1
IC50 (MV4-11): 6.37 nM | Activity (BaF3 [3]): 84.97%

O=C(Nc1cc(-c2ccc3ncn(Cc4c(Cl)cccc4Cl)c3c2)[nH]n1)c1ccc(N2CC3CC2CN3)cc1 (stereo not given)
IC50 (MV4-11): 2.26 nM | Activity (BaF3 [3]): 103.48%

CCN1CCN(c2ncc(C(=O)Nc3cc(-c4ccc5ncn(Cc6c(Cl)cccc6Cl)c5c4)[nH]n3)cn2)CC1
IC50 (MV4-11): 12.6 nM | Activity (BaF3 [3]): 111.76%

O=C(Nc1cc(-c2ccc3ncn(Cc4c(Cl)cccc4Cl)c3c2)[nH]n1)c1ccc(N2CCOCC2)cc1
IC50 (MV4-11): 3.61 nM | Activity (BaF3 [3]): 109.68%

CN1CCC(Nc2ccc(C(=O)Nc3cc(-c4cccc5c4ncn5C)[nH]n3)cc2)CC1
IC50 [4]: 23.7 nM

CN1CCC(Nc2ccc(C(=O)Nc3cc(-c4ccc5ncn(C6CCCC6)c5c4)[nH]n3)cc2)CC1
IC50 [4]: 1.14 nM | IC50 (MV4-11): 68.2 nM | Activity (BaF3 [2]): 97.57%

CN1CCC(Nc2ccc(C(=O)Nc3cc(-c4ccc5ncn(Cc6ccccc6F)c5c4)[nH]n3)cc2)CC1
IC50 [4]: 8.34 nM | IC50 (MV4-11): 90.6 nM | Activity (BaF3 [2]): 99.79%

CN1CCC(Nc2ccc(C(=O)Nc3cc(-c4ccc5ccn(Cc6ccccc6)c5c4)[nH]n3)cc2)CC1
IC50 [4]: 2.06 nM | IC50 (MV4-11): 75.6 nM

O=C(Nc1cc(-c2ccc3ncn(Cc4ccccc4Cl)c3c2)[nH]n1)c1ccc(N2CCNCC2)cc1
IC50 (MV4-11): 13.8 nM | IC50 (BaF3 [1]): 60.9 nM | Activity (BaF3 [2]): 14.55%

CN1CCC(Nc2ccc(C(=O)Nc3cc(-c4ccc5ncn(Cc6cccc(F)c6)c5c4)[nH]n3)cc2)CC1
IC50 [4]: 3.22 nM | IC50 (MV4-11): 18.5 nM | Activity (BaF3 [2]): 97.08%

O=C(Nc1cc(-c2ccc3ncn(Cc4c(Cl)cccc4Cl)c3c2)[nH]n1)c1ccc(N2CC3CC2CO3)cc1 (stereo not given)
IC50 (MV4-11): 2.88 nM | Activity (BaF3 [3]): 88.75%

CN1CCC(Nc2ccc(C(=O)Nc3cc(-c4ccc5ncn(Cc6ccccc6Cl)c5c4)[nH]n3)cc2)CC1
IC50 [4]: 0.85 nM | IC50 (MV4-11): 25.4 nM | Activity (BaF3 [2]): 40.17%

CCN1CCN(c2ccc(C(=O)Nc3cc(-c4ccc5ncn(Cc6c(Cl)cccc6Cl)c5c4)[nH]n3)cn2)CC1
IC50 (MV4-11): 3.25 nM | Activity (BaF3 [3]): 102.56%

CN1CCCN(c2ccc(C(=O)Nc3cc(-c4ccc5ncn(Cc6c(Cl)cccc6Cl)c5c4)[nH]n3)cc2)CC1
IC50 (MV4-11): 1.38 nM | Activity (BaF3 [3]): 107.43%

CN(C)CCN(C)c1ccc(C(=O)Nc2cc(-c3ccc4ncn(Cc5c(Cl)cccc5Cl)c4c3)[nH]n2)cc1
IC50 (MV4-11): 2.78 nM | Activity (BaF3 [3]): 102.83%

Cc1cc(NC2CCN(C)CC2)ccc1C(=O)Nc1cc(-c2ccc3ncn(Cc4ccccc4)c3c2)[nH]n1
IC50 [4]: 9.06 nM | IC50 (MV4-11): 86.2 nM

CN1CCN(c2ccc(C(=O)Nc3cc(-c4ccc5ncn(Cc6c(Cl)cccc6Cl)c5c4)[nH]n3)cc2)CC1=O
IC50 (MV4-11): 2.64 nM | Activity (BaF3 [3]): 104.57%

CN1CCC(Nc2ccc(C(=O)Nc3cc(-c4ccc5ncn(Cc6ccsc6)c5c4)[nH]n3)cc2)CC1
IC50 [4]: 1.42 nM | IC50 (MV4-11): 55.6 nM | Activity (BaF3 [2]): 108.58%

CN1CCC(Nc2ccc(C(=O)Nc3cc(-c4ccc5ncn(Cc6c(Cl)cccc6Cl)c5c4)[nH]n3)cc2)CC1
IC50 (MV4-11): 0.77 nM | Activity (BaF3 [3]): 104.29%

CCN1CCN(c2ccc(C(=O)Nc3cc(-c4ccc5ncn(Cc6cccc(F)c6Cl)c5c4)[nH]n3)cc2)CC1
Activity (BaF3 [5]): 47.53% | IC50 (MV4-11): 12.5 nM | Activity (BaF3 [3]): 101.05%

CN1CCC(Nc2ccc(C(=O)Nc3cc(-c4ccc5ncn(C6CC6)c5c4)[nH]n3)cc2)CC1
IC50 [4]: 3.58 nM

CN1CCC(Nc2ccc(C(=O)Nc3cc(-c4ccc5nccnc5c4)[nH]n3)cc2)CC1
IC50 [4]: 14.1 nM

CN1CCC(Nc2ccc(C(=O)Nc3cc(-c4ccc5ncn([C@H]6CC[C@H](N)CC6)c5c4)[nH]n3)cc2)CC1
IC50 [4]: 3.88 nM

CN1CCC(Nc2ccc(C(=O)Nc3cc(-c4ccc5ncn(Cc6ccc(Cl)cc6)c5c4)[nH]n3)cc2)CC1
IC50 [4]: 3.59 nM | IC50 (MV4-11): 219 nM | Activity (BaF3 [2]): 101.73%

CCN1CCN(c2ccc(C(=O)Nc3cc(-c4ccc5ncn(Cc6cc(F)ccc6Cl)c5c4)[nH]n3)cc2)CC1
Activity (BaF3 [5]): 49.36% | IC50 (MV4-11): 12.6 nM | Activity (BaF3 [3]): 107.7%

CN1CCC(Nc2ccc(C(=O)Nc3cc(-c4ccc5ncn(C6CCOCC6)c5c4)[nH]n3)cc2)CC1
IC50 [4]: 5.73 nM

CN1CCC(Nc2ccc(C(=O)Nc3cc(-c4ccc5ncn(Cc6ccccc6)c5c4)[nH]n3)c(F)c2)CC1
IC50 [4]: 11.1 nM | IC50 (MV4-11): 99.3 nM

CN1CCC(Nc2ccc(C(=O)Nc3cc(-c4ccc5ncn(-c6ccccc6)c5c4)[nH]n3)cc2)CC1
IC50 [4]: 4.96 nM

CCN1CCN(c2ccc(C(=O)Nc3cc(-c4ccc5ncn(Cc6c(F)cccc6Cl)c5c4)[nH]n3)cc2)CC1
Activity (BaF3 [5]): 21.63% | IC50 (MV4-11): 2.61 nM | Activity (BaF3 [3]): 101.37%

CN1CCC(C(=O)Nc2cc(-c3ccc4ncn(Cc5ccccc5)c4c3)[nH]n2)CC1
IC50 [4]: 397 nM | IC50 (MV4-11): 1700 nM

CN1CCC(Nc2ccc(C(=O)Nc3cc(-c4ccc5ncn(CC6CCCCC6)c5c4)[nH]n3)cc2)CC1
IC50 [4]: 3.86 nM

CN1CCC(Nc2ccc(C(=O)Nc3cc(-c4ccc5ncn(C)c5c4)[nH]n3)cc2)CC1
IC50 [4]: 7.59 nM

CN1CCC(Nc2ccc(C(=O)Nc3cc(-c4ccc5ncn(Cc6ccccc6)c5c4)[nH]n3)cc2)CC1
IC50 [4]: 1.84 nM | Activity (BaF3 [2]): 96.22%

CN1CCC(Nc2ccc(C(=O)Nc3cc(-c4ccc5ncn(Cc6ccncc6)c5c4)[nH]n3)cc2)CC1
IC50 [4]: 16 nM

CN1CCN(Cc2ccc(NC(=O)c3n[nH]cc3Nc3ncnc4[nH]ccc34)cc2)CC1
IC50 [4]: 1.71 nM | IC50 (MV4-11): 6.38 nM | IC50 (BaF3 [1]): 7.65 nM

CN1CCN(c2ccc(C(=O)Nc3cc(-c4ccc5ncn(Cc6ccccc6Cl)c5c4)[nH]n3)cc2)CC1
IC50 (MV4-11): 30 nM | IC50 (BaF3 [1]): 82.8 nM | Activity (BaF3 [2]): 20.29%

CN(C)CCNc1ccc(C(=O)Nc2cc(-c3ccc4ncn(Cc5c(Cl)cccc5Cl)c4c3)[nH]n2)cc1
IC50 (MV4-11): 3.14 nM | Activity (BaF3 [3]): 101.71%

Cc1ccccc1Cn1cnc2ccc(-c3cc(NC(=O)c4ccc(NC5CCN(C)CC5)cc4)n[nH]3)cc21
IC50 [4]: 0.94 nM | IC50 (MV4-11): 29.7 nM | Activity (BaF3 [2]): 86.49%

CCN1CCN(c2ccc(C(=O)Nc3cc(-c4ccc5ncn(Cc6c(C)cccc6C)c5c4)[nH]n3)cc2)CC1
Activity (BaF3 [5]): 4.57% | IC50 (MV4-11): 4.85 nM | Activity (BaF3 [3]): 103.84%

CN1CCC(Nc2ccc(C(=O)Nc3cc(-c4ccc5ncn(Cc6cccc(Cl)c6)c5c4)[nH]n3)cc2)CC1
IC50 [4]: 0.94 nM | IC50 (MV4-11): 66 nM | Activity (BaF3 [2]): 100.75%

O=C(Nc1cc(-c2ccc3ncn(Cc4ccccc4)c3c2)[nH]n1)c1ccccc1
IC50 [4]: 12.9 nM | IC50 (MV4-11): 219 nM
